Reference: US12129267B2, “Heteroaryl amide compounds as sting activators” (Incyte Corporation, priority 2019, dated 2024)

System: IRF3
Assay: IRF3 activation assay in THP-1 Dual Cells
Type: cell-based
Conditions: Homo sapiens, THP1-Dual, 24 hours incubation, QUANTI-Blue readout
Method: THP-1 Dual Cells (Invivogen) were maintained in RPMI1640 medium with addition of 10% FBS, 100 μg/mL zeocin, 10 μg/mL blasticidin. Cells were added in a 96-well flat bottom assay plate at 100,000 per well in 100 μL complete RPMI medium. Test compounds were prepared by serial dilution in complete RPMI medium and 100 μL test compounds were transferred to each corresponding well. The assay plate was incubated at 37° C., 5% CO2 for 24 hours. After the overnight incubation, 20 μL of the culture supernatants were collected, followed by addition of 180 μL of QUANTI-Blue (Invivogen) to assess IRF3 activity. The amount of IRF3 activation was assessed by reading the absorbance at 620-655 nm with a microplate reader 2 hours later. The culture supernatant from the untreated THP-1 cells was used as the negative control. To determine the NF-κB activation, another 20 μL of culture supernatant were transferred to a 96-well white plate, followed by addition of 50 μL of Quanti-Luc™ assay solution (Invivogen). The amount of NF-κB activation induced by the test compounds were determined by the luminescence above the untreated control. EC50 determination was performed by fitting the curve of percent control activity versus the log of the compound concentration using the GraphPad Prism 6.0 software.

| EC50 [nM] | SMILES |
| --- | --- |
| < 100 | CCn1nc(C)cc1C(=O)Nc1nc2cc(C(N)=O)c3ccoc3c2n1C/C=C/Cn1c2nc(-c3cc(C)nn3CC)ncc2c2cc(C(N)=O)cc(OC)c21 [Example 1, (E)-1-(4-(6-carbamoyl-2-(1-ethyl-3-methyl-1H-pyrazol-5-yl)-8-methoxy-9H-pyrimido[4,5-b]indol-9-yl)but-2-en-1-yl)-2-(1-ethyl-3-methyl-1H-pyrazole-5-carboxamido)-1H-benzofuro[6,7-d]imidazole-5-carboxamide] |
| < 100 | CCn1nc(C)cc1C(=O)Nc1nc2cc(C(N)=O)c3ccoc3c2n1C/C=C/Cn1c2nc(-c3cc(C)nn3CC)ncc2c2cc(C(N)=O)cc(OCCCOC)c21 [Example 2, (E)-1-(4-(6-carbamoyl-2-(1-ethyl-3-methyl-1H-pyrazol-5-yl)-8-(3-methoxypropoxy)-9H-pyrimido[4,5-b]indol-9-yl)but-2-en-1-yl)-2-(1-ethyl-3-methyl-1H-pyrazole-5-carboxamido)-1H-benzofuro[6,7-d]imidazole-5-carboxamide] |
| < 100 | CCn1nc(C)cc1C(=O)Nc1nc2cc(C(N)=O)c3ccoc3c2n1C/C=C/Cn1c2nc(-c3cc(C)nn3CC)ncc2c2cc(C(N)=O)cc(OCCCO)c21 [Example 3, (E)-1-(4-(6-carbamoyl-2-(1-ethyl-3-methyl-1H-pyrazol-5-yl)-8-(3-hydroxypropoxy)-9H-pyrimido[4,5-b]indol-9-yl)but-2-en-1-yl)-2-(1-ethyl-3-methyl-1H-pyrazole-5-carboxamido)-1H-benzofuro[6,7-d]imidazole-5-carboxamide] |
